Values joined by “and” are separate entries in the source; they are usually repeats but may differ in a detail not shown here. Identical values can stand only once.
Legend:
[1] = test system: Methicillin-sensitive S. aureus; assay: Phase II SSTI trial: microbiological response by pathogen; type: in vivo, human; conditions: MITT at FU
Experimental: (§1) This randomized, controlled study evaluated the safety and efficacy of two dose regimens of dalbavancin.
(§2) There were 62 patients randomized into the study; all received at least one dose of study medication. Four study populations were evaluated for safety and efficacy and were defined as follows: The intent-to-treat (ITT) population included all patients who received at least one dose of study drug (all randomized study subjects).
(§3) Microbiological outcome, a secondary efficacy variable, was assessed in the subpopulation of patients who had microbiologically documented SSTI (i.e., at least one identified baseline pathogen). A microbiologic response was assessed for each Gram-positive pathogen identified at baseline (i.e., eradication, presumed eradication, persistence, presumed persistence). For patients for whom follow-up cultures were not performed, the microbiologic responses for baseline pathogens were presumed on the basis of the clinical response. Microbiologic response by patient at the EOT and FU visits was graded as success (i.e., all Gram-positive organisms eradicated or presumed eradicated) or failure (i.e., at least one Gram-positive organism persisted or presumed to have persisted, multiple pathogens with partial eradication). At both the EOT and FU visits, colonization and superinfection were assessed. At the FU visit, a patient's bacteriological response could also include recurrence.

[2] = test system: Miscellaneous streptococcus species; assay: as above; type: in vivo, human; conditions: MITT at FU
Experimental: as §1, §2, §3

S. aureus = assay: as above; type: in vivo, human; conditions: for Success rate by pathogen: All S. aureus: MITT at FU; for S. aureus eradication rate: microbiologically-evaluable population at FU
Experimental: as §1, §2, §3

[3] = Phase II SSTI trial: dalbavancin plasma concentrations; type: in vivo, human
[4] = test system: Gram-positive isolates, including MRSA; assay: Dalbavancin MIC of trial isolates; type: cell-based; conditions: isolates that persisted after treatment
[5] = Pharmacokinetics and renal excretion in healthy subjects; type: in vivo, human
Experimental: Blood samples were drawn into heparinized tubes and centrifuged. Plasma was separated and stored frozen at −20° C. until time of assay. Plasma and urine samples were assayed for dalbavancin using validated LC/MS/MS methods. […] The peak concentration (Cmax) values were obtained directly from the observed data. The area under the plasma concentration-time curve (AUC) was calculated using the linear trapezoidal rule. Clearance (CL) was computed as dose/AUC. The elimination half life (t1/2) was estimated by linear regression of the log-linear portion of the log concentration versus time curve. Estimates of the volume of distribution (VZ) was calculated using the regression parameters, while the volume of distribution at steady state (Vss) was calculated from the area under the first moment curve (AUMC) multiplied by the dose and divided by AUC. The cumulative amount of dalbavancin excreted in urine was determined as the integrand of the urine excretion rate (AURC). CLR, or renal clearance, was calculated as the ratio: CLR=AURC/AUC.

[6] = Safety assessments in healthy subjects; type: in vivo, human
Experimental: Adverse events were recorded and assessed for severity and relationship to study drug. Laboratory data (chemistry panel, CBC with differential, urinalysis) were collected and assessed for changes from baseline and out-of-range values. ECG, physical examination, and vital signs were obtained, and changes from baseline were assessed.

human albumin = human albumin (Homo sapiens, UniProt P02768); assay: Protein binding by isothermal titration microcalorimetry (ITC); conditions: for Calculated percent Binding to Human albumin: albumin 6×10^−4 M assumed
Chain of human albumin (P02768 25-609): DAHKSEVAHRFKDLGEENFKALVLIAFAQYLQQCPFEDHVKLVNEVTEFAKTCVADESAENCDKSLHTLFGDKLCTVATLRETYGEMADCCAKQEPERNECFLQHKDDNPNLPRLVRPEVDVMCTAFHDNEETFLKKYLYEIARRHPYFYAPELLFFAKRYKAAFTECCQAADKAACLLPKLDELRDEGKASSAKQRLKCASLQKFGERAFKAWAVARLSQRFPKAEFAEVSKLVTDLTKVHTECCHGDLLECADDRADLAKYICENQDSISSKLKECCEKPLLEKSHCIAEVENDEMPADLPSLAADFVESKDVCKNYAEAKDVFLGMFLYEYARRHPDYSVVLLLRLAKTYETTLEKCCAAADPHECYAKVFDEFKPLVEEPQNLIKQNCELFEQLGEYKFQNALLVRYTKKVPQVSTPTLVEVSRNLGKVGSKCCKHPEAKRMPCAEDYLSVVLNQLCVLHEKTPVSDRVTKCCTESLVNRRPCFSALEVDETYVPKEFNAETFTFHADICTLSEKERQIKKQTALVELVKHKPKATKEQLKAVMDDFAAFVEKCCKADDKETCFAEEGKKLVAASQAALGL

dog albumin = dog albumin (Canis lupus familiaris, UniProt P49822); assay: Protein binding by ITC; conditions: pH 7.4
Chain of dog albumin (P49822 25-608): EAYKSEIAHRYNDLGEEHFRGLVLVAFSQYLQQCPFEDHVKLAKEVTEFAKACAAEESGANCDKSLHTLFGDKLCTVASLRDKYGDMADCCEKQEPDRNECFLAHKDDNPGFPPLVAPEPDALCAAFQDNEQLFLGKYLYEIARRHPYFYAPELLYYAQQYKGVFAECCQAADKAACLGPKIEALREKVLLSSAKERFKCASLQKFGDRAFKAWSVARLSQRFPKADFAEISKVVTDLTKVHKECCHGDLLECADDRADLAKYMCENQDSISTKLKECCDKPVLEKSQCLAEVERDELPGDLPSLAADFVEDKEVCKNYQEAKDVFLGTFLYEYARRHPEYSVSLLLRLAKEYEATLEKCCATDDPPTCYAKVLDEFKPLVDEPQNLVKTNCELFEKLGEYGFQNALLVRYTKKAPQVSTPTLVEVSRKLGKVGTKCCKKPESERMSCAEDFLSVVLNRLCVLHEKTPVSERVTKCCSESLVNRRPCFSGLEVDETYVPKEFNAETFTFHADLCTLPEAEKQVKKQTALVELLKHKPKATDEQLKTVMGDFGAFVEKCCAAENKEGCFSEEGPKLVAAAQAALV

bovine albumin = bovine albumin (Bos taurus, UniProt P02769); assay: Protein binding by ITC; conditions: 25° C.; pH 7.4
Chain of bovine albumin (P02769 25-607): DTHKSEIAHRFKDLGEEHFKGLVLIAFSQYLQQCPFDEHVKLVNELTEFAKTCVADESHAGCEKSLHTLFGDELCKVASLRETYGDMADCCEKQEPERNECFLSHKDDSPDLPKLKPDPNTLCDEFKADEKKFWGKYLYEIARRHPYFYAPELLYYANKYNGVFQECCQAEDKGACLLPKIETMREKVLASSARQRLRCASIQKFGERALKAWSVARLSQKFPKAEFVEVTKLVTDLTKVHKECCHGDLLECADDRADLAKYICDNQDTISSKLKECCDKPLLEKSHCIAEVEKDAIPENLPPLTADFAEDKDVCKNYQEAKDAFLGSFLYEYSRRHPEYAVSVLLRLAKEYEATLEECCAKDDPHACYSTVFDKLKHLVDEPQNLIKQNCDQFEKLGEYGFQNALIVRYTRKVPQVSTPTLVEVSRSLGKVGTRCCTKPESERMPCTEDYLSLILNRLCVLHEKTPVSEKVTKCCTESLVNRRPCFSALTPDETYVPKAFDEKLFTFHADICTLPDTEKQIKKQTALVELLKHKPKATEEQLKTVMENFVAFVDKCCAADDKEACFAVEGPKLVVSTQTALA

human α-glycoprotein = assay: Protein binding by ITC; conditions: for Apparent binding affinity Ka: pH 7.4; for Calculated percent Binding to Human α-glycoprotein: protein […]10^−5 M assumed
HSA = HSA (Homo sapiens, UniProt P02768); assay: MALDI-TOF mass spectrometry of protein-dalbavancin complexes; type: binding; conditions: ratios (1:2, 1:10)
Chain of HSA (P02768 25-609): as the sequence (P02768 25-609) above
Experimental: The samples were prepared for analysis using the dried droplet technique. Spectra were obtained on a BRUKER FLEX III, tof mass spectrometer previously tuned and calibrated using standard bovine serum albumin, acquiring and averaging spectra generated by 200 laser shots. Matrix: 9 parts of DHB-9 (2,5-dihydroxy-benzoic acid) saturated in acetonitrile/H2O (50:50), 1 part of sinapinic acid saturated in acetonitrile/H2O (50:50). 0.5 ul of sample solution and 0.5 ul of matrix solution were mixed and placed on the laser target.

Lys-D-Ala-D-Lactate = assay: ITC, preliminary experiments; type: binding; conditions: absence of serum proteins
staphylococci = assay: In vitro antibacterial activity; type: cell-based; conditions: including some teicoplanin-resistant strains
streptococci = assay: In vitro antibacterial activity; type: cell-based; conditions: including penicillin-resistant strains
bacteria = conditions: cited from earlier work
[7] = AE possibly related, upper limit of normal 40 IU/L
[8] = single 1000 mg IV dose, healthy subjects
[9] = six healthy volunteers, single 1000 mg IV

CN[C@H]1C(=O)N[C@@H]2Cc3ccc(cc3)Oc3cc4cc(c3O[C@@H]3O[C@H](C(=O)O)[C@@H](O)[C@H](O)[C@H]3NC(=O)CCCCCCCCC(C)C)Oc3ccc(cc3Cl)[C@@H](O)[C@@H]3NC(=O)[C@H](NC(=O)[C@@H]4NC(=O)[C@@H](NC2=O)c2cc(cc(O)c2Cl)Oc2cc1ccc2O)c1ccc(O)c(c1)-c1c(O[C@H]2O[C@H](CO)[C@@H](O)[C@H](O)[C@@H]2O)cc(O)cc1[C@@H](C(=O)NCCCN(C)C)NC3=O [Dalbavancin]
Success rate by pathogen: Methicillin-sensitive ([1]; single-dose 1100 mg): 2/7 (29%)
Success rate by pathogen: Methicillin-sensitive ([1]; two-dose 1000/500 mg): 5/6 (83%)
Success rate by pathogen: Miscellaneous streptococcus species ([2]; single-dose 1100 mg): 2/3 (67%)
Success rate by pathogen: Miscellaneous streptococcus species ([2]; two-dose 1000/500 mg): 4/4 (100%)
Success rate by pathogen: All S. aureus (S. aureus; single-dose 1100 mg): 5/13 (38%)
Success rate by pathogen: All S. aureus (S. aureus; two-dose 1000/500 mg): 9/11 (82%)
S. aureus eradication rate (S. aureus; single-dose dalbavancin): 50%
S. aureus eradication rate (S. aureus; two-dose dalbavancin): 90%
Dalbavancin plasma level maintained ([3]; additional week, with an additional dose of 500 mg IV on day 8): greater than 20 mg/l
Mean dalbavancin plasma concentration (mean±SD) ([3]; single-dose regimen 1100 mg IV, Study day 8): 31.1 ± 7.1 mg/L
Mean dalbavancin plasma concentration (mean±SD) ([3]; single-dose regimen, Study day 10): 25.2 ± 4.8 mg/L
Mean dalbavancin plasma concentration (mean±SD) ([3]; single-dose regimen, Study day 24): 10.2 ± 3.5 mg/L
Dalbavancin plasma concentration, all patients ([3]; through the first week following the first dose): greater than 20 mg/l
Mean dalbavancin plasma concentration (mean±SD) ([3]; two-dose regimen 1000/500 mg IV, Study day 8 (prior to the second dose)): 30.4 ± 8.2 mg/L
Mean dalbavancin plasma concentration (mean±SD) ([3]; two-dose regimen, Study day 20): 21.2 ± 10.0 mg/L
Mean dalbavancin plasma concentration (mean±SD) ([3]; two-dose regimen, Study day 34): 9.0 ± 4.4 mg/L
Change in dalbavancin MIC of isolates that persisted [4]: no change in dalbavancin MIC
AURC (cumulative amount excreted in urine) ([5]; Mean, single 1000 mg IV): 419 mg
CL ([5]; Mean, single 1000 mg IV): 0.0431 ± 0.0074 L/h
CLR ([5]; Mean, single 1000 mg IV): 0.018 L/h
Vz ([5]; Mean, single 1000 mg IV): 16.0 L
CLR ([5]; Min, single 1000 mg IV): 0.0130 L/h
Peak concentration of dalbavancin in man ([5]; conversion of approximately 300 mg/L): 165 µM
Peak plasma concentrations ([5]; immediately following end of infusion, single 1000 mg IV): approximately 300 mg/L
Plasma concentrations maintained for at least seven days ([5]; single intravenous infusion of 1000 mg): above 45 mg/l
Eosinophilia, individual subject value ([6]; AE possibly related, upper limit of normal 0.4×10^3/μL): 500 µL⁻¹
Elevated ALT, individual subject value [6, 7]: 46 IU/L and 54 IU/L
Elevated AST, individual subject value [6, 7]: 42 IU/L
Elevated LDH, individual subject value ([6]; AE possibly related, upper limit of normal 90 IU/L): 303 IU/L
Post-baseline hematology, chemistry, vital signs, and ECG ([6]; single 1000 mg IV): No trends were seen
Deaths or serious adverse events [6, 8]: No subject deaths or serious adverse events were reported
Tolerability [6, 8]: well-tolerated
AEs possibly related to study medication [6, 9]: Three volunteers reported AEs that were possibly related to study medication
Adverse events, incidence and intensity [6, 9]: All volunteers reported at least one AE, all of mild intensity
Apparent binding affinity Ka (human albumin; 37° C., pH 7.4): 1.33 (±0.15) ×10^5 M^−1
Binding stoichiometry N (protein to dalbavancin) (human albumin; ITC fit, in all cases (all proteins tested), FIG. 2): < 1
Binding to human serum albumin (human albumin; across 1-500 μM dalbavancin): exceeds 98%
Calculated percent Binding to Human albumin (human albumin; antibiotic 1 μM): 98.8%
Calculated percent Binding to Human albumin (human albumin; antibiotic 10 μM): 98.8%
Calculated percent Binding to Human albumin (human albumin; antibiotic 100 μM): 98.7%
Calculated percent Binding to Human albumin (human albumin; antibiotic 165 μM): 98.6%
Calculated percent Binding to Human albumin (human albumin; antibiotic 250 μM): 98.5%
Calculated percent Binding to Human albumin (human albumin; antibiotic 500 μM): 98.0%
Binding stoichiometry antibiotic:protein (human albumin; binding stoichiometry modeling of ITC data): two dalbavancin molecules are bound to one molecule of protein
Free fraction (human albumin; human): ~1%
Apparent binding affinity Ka (dog albumin; 25° C.): 0.62 (±0.09) ×10^5 M^−1
Apparent binding affinity Ka (dog albumin; 37° C.): 0.50 (±0.13) ×10^5 M^−1
Apparent binding affinity Ka (bovine albumin): 1.38 (±0.14) ×10^5 M^−1
Apparent binding affinity Ka (human α-glycoprotein; 25° C.): 1.84 (±0.36) ×10^5 M^−1
Apparent binding affinity Ka (human α-glycoprotein; 37° C.): 4.8 (±2.3) ×10^5 M^−1
Calculated percent Binding to Human α-glycoprotein (human α-glycoprotein; antibiotic 1 μM): 73.0%
Calculated percent Binding to Human α-glycoprotein (human α-glycoprotein; antibiotic 10 μM): 68.2%
Calculated percent Binding to Human α-glycoprotein (human α-glycoprotein; antibiotic 100 μM): 26.2%
Calculated percent Binding to Human α-glycoprotein (human α-glycoprotein; antibiotic 165 μM): 16.9%
Calculated percent Binding to Human α-glycoprotein (human α-glycoprotein; antibiotic 250 μM): 11.4%
Calculated percent Binding to Human α-glycoprotein (human α-glycoprotein; antibiotic 500 μM): 5.9%
Complex with HSA at very high dalbavancin to protein ratios (HSA): complexes containing 2 molecules of dalbavancin per protein molecule can be observed
Binding to Lys-D-Ala-D-Lactate (Lys-D-Ala-D-Lactate): no evidence of binding
In vitro activity relative to teicoplanin and vancomycin (staphylococci): more active in vitro against staphylococci (including some teicoplanin-resistant strains) than teicoplanin and vancomycin
Activity relative to teicoplanin or vancomycin (streptococci): better activity against streptococci, including penicillin-resistant strains, than teicoplanin or vancomycin
Concentrations known to be bactericidal (bacteria): 4 to 32 mg/L

— patent publication US20050130909A1 (priority 2002, published 2005)
